Key:
[1] = test system: subjects with gingivitis; test: randomized, placebo-controlled, double-blind clinical study of Compound (Vb) oral rinse in gingivitis; format: in vivo, humans
Protocol: A clinical study comprised of 3 groups in a randomized, placebo-controlled, double-blind design with an additional group that received no treatment was performed to evaluate the use of Compound (Vb) on the treatment of gingivitis. Subjects were healthy adults, aged 18 through 65 years, with gingivitis as defined by […] (MGI)≥2.0. The treatment group (Compound (Vb) oral rinse) and the placebo rinse group consisted of 50 subjects each. The no-rinse control group consisted of 27 subjects. These group sizes were planned to allow for a 20% dropout rate.
(§1) The pH of this solution was 7 or less.
The Compound (Vb) oral rinse group received the active agent at a concentration of 1.0 μM in the oral rinse applied once daily (after morning teeth brushing) for 28 days. Thirty-two subjects reported a total of 56 treatment emergent adverse effects (TEAEs), with the greatest percentage of subjects reporting at least 1 TEAE in the Compound (Vb) group (38.0%) followed by the placebo group (20.0%) and the no-rinse control group (11.1%). Overall, 10 subjects reported at least 1 TEAE considered related to study drug, and 5 subjects reported at least one TEAE related to study procedures.
The primary outcome of this study was safety, and therefore, all efficacy analyses were considered secondary outcomes. The key secondary efficacy outcomes in this study were Modified Gingival Index (MGI) and BOP.

[2] = stability of the methyl ester in the oral rinse formulation over the course of the study; format: physicochemical; settings: neutral pH (7 or less)
Description: as §1
Without wishing to be bound by theory, it is believed that […] the pH of the oral rinse formulation increases the stability of the methyl ester forms of these benzo-lipoxin analogs and mimetics, therefore allowing for more efficient delivery of the active compounds (e.g., Compound (Vb), etc.) in these formulations.

[3] = test system: eicosanoid oxido-reductase; settings: in comparison with native lipoxin A4; cited from earlier work
[4] = test system: polymorphonuclear neutrophil infiltration; settings: murine peritonitis model, compared with the vehicle control; cited from earlier work
[5] = 1.0 μM oral rinse once daily for 28 days
[6] = oral TEAE possibly related to study drug

SMILES: CCCCC[C@@H](O)/C=C/c1ccccc1/C=C/[C@@H](O)[C@@H](O)CCCC(=O)OC [Compound (Vb), methyl (5S,6R,E)-5,6-dihydroxy-8-(2-((R,E)-3-hydroxyoct-1-en-1-yl)phenyl)oct-7-enoate]
- overall safety and tolerability [1, 5]: generally safe and well tolerated
- percentage of subjects reporting at least 1 TEAE [1, 5]: 38.0%
- subjects reporting oral TEAEs considered possibly related to study drug [1, 5]: Four
- subjects with study drug-related TEAEs [1, 5]: 6 subjects
- change in mean MGI ([1]; Day 14 and 28, relative to placebo): clinically important decrease
- BOP ([1]; Day 28, versus placebo): did not result in meaningful differences
- extent of clinical gingivitis ([1]; compared with the placebo group): reduced the extent of clinical gingivitis
- TEAEs leading to study drug discontinuation ([1]; human, in vivo): No TEAEs led to study drug discontinuation
- severity of oral TEAEs ([1]; human, in vivo, po): mild in severity
- subjects reporting an oral disorder [1, 6]: 1 subject
- subjects reporting dry mouth [1, 6]: 3 subjects
- pocket depth reduction ([1]; sites with pockets >6 mm, ± SD): −1.23±0.406 mm
- stability of the methyl ester in the formulation [2]: increase in the free acid form
- conversion to inactive forms [3]: not readily converted to inactive forms
- inhibition of polymorphonuclear neutrophil infiltration [4]: approximately 32%
